System: Deroceras reticulatum
Experiment: Split box trial: slug damage to lettuce seedlings / slug repellency
Type: in vivo
Description: A split box trial was conducted using Deroceras reticulatum as the slug species and lettuce seedling as the food source. There were 5 split treatments with each treatment replicated four times using a simple randomized block design. Each plot was a single enclosed cage of dimensions 0.6 m×0.4 m. Each cage was of opaque plastic construction with rigid sides and a removable fine muslin top to prevent escape of the slugs. The cages were each filled with natural loam soil to a depth of approximately 7 cm, which was consolidated to prevent slug escape. Half of each box was covered with a polythene sheet before spraying to prevent the spray from reaching the soil on half of the box. […] Following the application of fluensulfone 250 CS, one treatment was incorporated into the soil by mixing the top 2 cm of the soil. The other applications had no soil incorporation. Lettuce plants were planted into the soil either seven or two days after spraying. At these intervals after spraying, six lettuce plants were planted into each cage, three in the treated side and three in the untreated side. After transplanting the lettuce plants, eight adult slugs were introduced into the centre of each cage. The soil was kept damp for the duration of the trials. [table] All sprayed treatments applied in 200 l/ha water. Assessments were carried out after the introduction of the slugs. Severity of leaf damage was assessed using a % scale where 0=no damage and 100=total loss of plant foliage. Incidence of plant damage was assessed by counting the actual number of plants showing damage.

SMILES: O=S(=O)(CCC(F)=C(F)F)c1ncc(Cl)s1 [fluensulfone]
- numbers of damaged lettuce plants (all fluensulfone treated boxes, compared to the untreated box): reduced compared to the untreated box
- amount of damage caused to the lettuce plants (damage severity) (treated boxes compared to the untreated box): reduced
- effect on live slugs (repellency) (treated boxes, slugs avoided the sprayed side and migrated to the untreated side): repellent effect

Reference: patent US20170295788A1, “USE OF HETEROCYCLIC FLUOROALKENYL SULFONE COMPOUNDS FOR REPELLING MOLLUSCS” (Adama Makhteshim Ltd., priority 2014, published 2017)
